Experiments:
[1] = test system: mice; test: thiopental sleep-enhancing test; format: in vivo, Male ICR mice; conditions: 50 mg/kg i.p. 15 minutes before thiopental 60 mg/kg i.p.
Experimental: Actions on thiopental sleep by various compounds were evaluated. Thiopental dissolved in physiological saline was administered intraperitoneally into mice at a dose of 60 mg/kg. […] The time when the righting reflex of the mice disappeared after thiopental administration was designated as sleep-induction time and the time when the righting reflex was restored was designated as awakening time, and total sleep time was calculated from these values.

[2] = test system: mice; test: suppression of the enhancement of ultromotivity by methamphetamine; format: in vivo, Male ICR mice; conditions: methamphetamine 1 mg/kg 15 minutes later, 60 minutes
Experimental: In the following Examples, all extracts and drugs used were dissolved in physiological saline before use for i.p. administration and the dose was 0.1 ml of physiological saline per 10 g of mouse body weight in either case. All extracts and drugs were suspended in physiological saline containing 1% sodium carboxymethylcellulose before use for oral administration and the dose was 0.1 ml of 1% sodium carboxymethylcellulose-containing physiological saline suspension per 10 g of mouse body weight in either case. Male ICR mice (Japan SLC) having a body weight of 25 to 30 g were used in the tests below unless otherwise stated, and were fed in advance at a room temperature of 23±1° C. and a relative humidity of 55±5% in the environment of a cycle of 12-hour-light from 7 a.m. to 7 p.m. and 12-hour-dark from 7 p.m. to 7 a.m. for 3 to 5 days. […]
Fifteen mice were grouped into three groups of five mice, to which 50 mg/kg of neferine hydrochloride (treatment group 3-1), 100 mg/kg of the same (treatment group 3-2), and only physiological saline (negative control group) were administered respectively intraperitoneally. […] After administration of methamphetamine, each of the mice was placed in a transparent polycarbonate cage (22.5 cm×33.8 cm×14.0 cm), where the ultromotivity of the mouse was analyzed for 60 minutes by using a locomotor activity analyzer (NS-AS01, Neuroscience Inc.).

[3] = test system: mice; test: forced swimming test (antidepressive action); format: in vivo, Male ICR mice; conditions: 100 mg/kg i.p., 6-minute period
Experimental: (§1) In the following Examples, all extracts and drugs used were dissolved in physiological saline before use for i.p. administration and the dose was 0.1 ml of physiological saline per 10 g of mouse body weight in either case. All extracts and drugs were suspended in physiological saline containing 1% sodium carboxymethylcellulose before use for oral administration and the dose was 0.1 ml of 1% sodium carboxymethylcellulose-containing physiological saline suspension per 10 g of mouse body weight in either case. Male ICR mice (Japan SLC) having a body weight of 25 to 30 g were used in the tests below unless otherwise stated, and were fed in advance at a room temperature of 23±1° C. and a relative humidity of 55±5% in the environment of a cycle of 12-hour-light from 7 a.m. to 7 p.m. and 12-hour-dark from 7 p.m. to 7 a.m. for 3 to 5 days. The mice were allowed to have water and feed freely.
Forced swimming tests were conducted according to the method of Porsolt et al. A mouse was placed in a cylindrical glass water tank of 10 cm in diameter and 25 cm in height (water temperature: 23° C.) filled with water to a depth of 10 cm and forced to swim therein. […] Each mouse was forced to swim 15 and 30 minutes after administration, and the immobile times during the 6-minute periods immediately after forced swimming were determined. […]

[4] = test system: mice; test: elevated plus-maze test (antianxiety action); format: in vivo, Male ICR mice; conditions: 100 mg/kg i.p., 30 minutes after administration
Experimental: In the following Examples, all extracts and drugs used were dissolved in physiological saline before use for i.p. administration and the dose was 0.1 ml of physiological saline per 10 g of mouse body weight in either case. All extracts and drugs were suspended in physiological saline containing 1% sodium carboxymethylcellulose before use for oral administration and the dose was 0.1 ml of 1% sodium carboxymethylcellulose-containing physiological saline suspension per 10 g of mouse body weight in either case. […]
An elevated plus-maze (Neuroscience Inc.) consisting of 2 arms without high walls and 2 arms enclosed by high walls, which were crossing perpendicular to each other, was used for evaluation. A mouse was placed on the platform at the center in a position facing toward an arm without walls, and the number of times the mouse entered into both arms and the period of the mouse staying in the arms without walls were determined during a period of 5 minutes. The results were evaluated by the ratio (%) of the number of the mouse entering into the arms without walls to the total number of entering into both arms and by the ratio (%) of the period of the mouse staying in the arms without walls to the test period. […]

[5] = test system: mice; test: formalin pad test; format: in vivo, Male ICR mice; conditions: for Licking sustaining time (second) First phase: 0 to 5 minutes; for Licking sustaining time (second) Second phase: 15 to 30 minutes
Experimental: as §1
A formalin pad test is a method in which, when formalin is subcutaneously administered to a pad of a mouse, the mouse causes licking, and analgesic action of a test drug is determined by utilizing this. Suppression of licking in a test drug-administered group was investigated relative to a physiological saline-administered control group, and analgestic action was evaluated.
Six mice per group were used. Neferine hydrochloride was intraperitoneally administered at a dose of 25 mg/kg, 50 mg/kg or 100 mg/kg and, after fifteen minutes, 20 μl of a 0.2% by weight formalin aqueous solution was subcutaneously administered to a right hind paw pad. After formalin administration, licking was regarded as a provisional pain reaction, and a licking sustaining time in a first phase from immediately after formalin administration to five minutes after formalin administration and in a second phase from 15 minutes to 30 minutes after formalin administration was measured. Regarding the resulting measurements, a significant difference test was performed by a Dunnet multiple comparison test method.
According to the same manner as in Example 13 except that 10 mg/kg of O-methylarmepavine was intraperitoneally administered in place of neferine, a formalin pad test was performed.

[6] = test system: mice; test: histamine-induced paw edema test; format: in vivo, Male ICR mice; conditions: 100 mg/kg i.p. 30 minutes before histamine 10 μg; 12 minutes after histamine
Experimental: as §1
Six mice per group were used. […] The thickness of the right hind paw was measured immediately before histamine administration and 12 minutes after histamine administration. The thickness immediately before administration was subtracted from the thickness of the paw after histamine administration, and this was adopted as a thickness of paw edema. As apparent from TABLE 18, paw edema due to histamine was suppressed by neferine. […]

[7] = test system: mice; conditions: Ito et al., abstract of the Japanese Society of Pharmacognosy; cited from earlier work
[8] = 25 mg/kg i.p. 15 minutes before formalin
[9] = 50 mg/kg i.p. 15 minutes before formalin
[10] = 100 mg/kg i.p. 15 minutes before formalin

COc1ccc(C[C@@H]2c3cc(Oc4cc(C[C@@H]5c6cc(OC)c(OC)cc6CCN5C)ccc4O)c(OC)cc3CCN2C)cc1 [neferine]
Total sleep time [1]: 100 min | Ultromotivity (count) ([2]; 50 mg/kg i.p.): 2600 count | Ultromotivity (count) ([2]; 100 mg/kg i.p.): 1800 count | Immobile time (sec) After 15 minutes ([3]; 15 minutes after administration): 165 s | Immobile time (sec) After 30 minutes ([3]; 30 minutes after administration): 170 s | Invasion times (%) ([4]; entries into arms without walls / total entries): 70% | Staying period (%) ([4]; period in arms without walls / test period): 33% | Licking sustaining time (second) First phase [5, 8]: 95.2 ± 3.79 s | Licking sustaining time (second) Second phase [5, 8]: 235.7 ± 13.01 s | Licking sustaining time (second) First phase [5, 9]: 98.7 ± 8.57 s | Licking sustaining time (second) Second phase [5, 9]: 200.3 ± 24.43 s | Licking sustaining time (second) First phase [5, 10]: 78.3 ± 7.57 s | Licking sustaining time (second) Second phase [5, 10]: 139.7 ± 18.61 s | Thickness of paw edema (mm) [6]: 0.32 ± 0.03 mm | locomotor activity-inhibiting action [7]: exhibited a locomotor activity-inhibiting action

— patent US20070027181A1, “Benzylisoquinoline derivative- or bisbenzylisoquinoline derivative-containing psychotropic agent, analgesic and/or antiphlogistic, and health food” (EDUCATION CENTER OF TRADITIONAL, priority 2004, published 2007)
